One series has as its target human NEP (Homo sapiens (Human), UniProt P08473). Briefly: In vitro enzyme inhibition assay at human NEP. The conditions noted are these: recombinant human NEP, fluorogenic peptide substrate, 37° C.; for Ki: pKi.
Series [1] in a line: Rat PO cassette assay (oral bioavailability). To be noted: male, Sprague-Dawley, plasma, single oral gavage vs intravenous dose, 0.5 mg/kg. It is filed as in vivo, Sprague-Dawley rats. From the text: Oral bioavailability, or % F, is a measure of the percentage of a drug in an oral dose that actually reaches the systemic circulation. Compound losses can occur due to incomplete formulation dissolution, incomplete absorption due to compound insolubility or instability along the GI, or metabolism in the gut or across the gut wall. The fraction of the dose which reaches the hepatic portal vein must also then pass through the liver before reaching the systemic circulation. Compound metabolism, or “first-pass extraction,” can occur during this initial passage through the liver, and this is an additional potential source of compound loss. Oral bioavailability is calculated as the dose-normalized ratio of drug exposure after an oral dose to that after an intravenous dose, wherein the entire dose is delivered directly to the systemic circulation.
Each cassette study begins with 10 mM DMSO stock solutions of up to 5 different compounds. Typically, compounds are selected such no two compounds dosed in the same cassette have a molecular weight within 5 Da of each other. This simplifies subsequent bioanalysis. Appropriate volumes of each DMSO stock are added into a volume of vehicle (5% sodium bicarbonate, 5% dextrose in H2O) such that the final concentration of each compound is 0.25 mg/mL. Intravenous dosing solutions are sterile-filtered (0.2 μm) prior to dosing.
Pre-cannulated male Sprague-Dawley rats (3 per cassette per route) between 8 and 10 weeks of age were obtained from Harlan Laboratories (Indianapolis, Ind.). Rats received either a single oral gavage or a single intravenous (via lateral tail vein) dose (2 mL/kg) of the dosing solution. The final dose was 0.5 mg/kg. Serial blood samples were harvested via jugular vein cannula at 3 minutes, 15 minutes, 30 minutes, 1 hours, 2 hours, 4 hours, 6 hours, and 24 hours post-dose. Sampling was performed either manually or using automated blood samplers. Samples were collected into microtainer tubes containing EDTA as the anticoagulant and are processed to plasma by refrigerated centrifugation.
Plasma samples were extracted with 3 volumes of MeCN containing a suitable internal standard. Extracts were reconstituted into 3 volumes of water containing 1% formic acid, and analyzed via HPLC-coupled MS/MS. Plasma concentration-time data were analyzed using the Phoenix software (Pharsight Corp., St. Louis, Mo.) to calculate pharmacokinetic parameters.
Compounds of the invention of particular interest were those having a % F>10%, when tested in this assay.

human NEP, sequence (P08473 52-750): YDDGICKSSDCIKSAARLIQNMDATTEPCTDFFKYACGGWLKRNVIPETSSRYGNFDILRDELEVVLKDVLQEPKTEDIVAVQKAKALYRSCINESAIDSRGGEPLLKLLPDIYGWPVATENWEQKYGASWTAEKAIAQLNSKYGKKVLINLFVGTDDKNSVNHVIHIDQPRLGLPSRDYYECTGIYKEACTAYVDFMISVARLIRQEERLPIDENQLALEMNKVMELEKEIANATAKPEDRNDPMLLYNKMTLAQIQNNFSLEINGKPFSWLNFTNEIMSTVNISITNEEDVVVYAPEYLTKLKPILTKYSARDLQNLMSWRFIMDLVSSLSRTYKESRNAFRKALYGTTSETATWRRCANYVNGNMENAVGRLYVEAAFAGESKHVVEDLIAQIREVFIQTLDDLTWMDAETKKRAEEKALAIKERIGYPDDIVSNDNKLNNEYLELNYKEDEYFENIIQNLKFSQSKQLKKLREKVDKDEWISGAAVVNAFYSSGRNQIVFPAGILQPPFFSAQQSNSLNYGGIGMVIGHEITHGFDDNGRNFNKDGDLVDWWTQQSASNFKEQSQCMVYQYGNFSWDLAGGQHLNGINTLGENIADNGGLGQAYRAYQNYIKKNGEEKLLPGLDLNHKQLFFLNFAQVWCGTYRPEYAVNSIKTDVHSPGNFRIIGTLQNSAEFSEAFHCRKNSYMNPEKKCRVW
Experimental for human NEP: The inhibitory activities of compounds at human and rat neprilysin (EC 3.4.24.11; NEP) and human angiotensin converting enzyme (ACE) were determined using in vitro assays as described below.
The assays were performed in 384-well white opaque plates at 37° C. using the fluorogenic peptide substrates at a concentration of 10 μM in Assay Buffer (NEP: 50 mM HEPES, pH 7.5, 100 mM NaCl, 0.01% polyethylene glycol sorbitan monolaurate (Tween-20), 10 μM ZnSO4; ACE: 50 mM HEPES, pH 7.5, 100 mM NaCl, 0.01% Tween-20, 1 μM ZnSO4).
Test compounds were assayed over the range of concentrations from 10 μM to 20 pM. Test compounds were added to the enzymes and incubated for 30 minute at 37° C. prior to initiating the reaction by the addition of substrate.
Plates were read on a fluorometer with excitation and emission wavelengths set to 320 nm and 405 nm, respectively Inhibition constants were obtained by nonlinear regression of the data using the equation (GraphPad Software, Inc., San Diego, Calif.): v=v0/[1+(I/K′)] where v is the reaction rate, v0 is the uninhibited reaction rate, I is the inhibitor concentration and K′ is the apparent inhibition constant.

For the molecule `CCOC[C@H](C[C@@H](Cc1ccc(-c2cc(Cl)ccc2F)cc1)NC(=O)c1c[nH]nn1)C(=O)O` [Example 7-1, (2S,4S)-5-(5′-Chloro-2′-fluorobiphenyl-4-yl)-2-ethoxymethyl-4-[(1H-[1,2,3]triazole-4-carbonyl)amino]pentanoic acid], the pKi result at human NEP is “≧9.0”. The molecule also came in with a bioavailability in series [1] greater than 10%.

Regarding `CCOC[C@H](C[C@@H](Cc1ccc(-c2cc(Cl)ccc2F)cc1)NC(=O)c1[nH]nc(C2CC2)c1F)C(=O)O` [Example 7-2, (2S,4S)-5-(5′-Chloro-2′-fluorobiphenyl-4-yl)-4-[(5-cyclopropyl-4-fluoro-2H-pyrazole-3-carbonyl)amino]-2-ethoxymethylpentanoic acid], on human NEP, the pKi result was “≧9.0”. This molecule also displayed a bioavailability in series [1] greater than 10%.

Regarding `CCOC[C@H](C[C@@H](Cc1ccc(-c2cc(Cl)ccc2F)cc1)NC(=O)c1cc(O)no1)C(=O)O` [Example 7-4, (2S,4S)-5-(5′-Chloro-2′-fluoro-biphenyl-4-yl)-2-ethoxymethyl-4-[(3-hydroxy-isoxazole-5-carbonyl)amino]pentanoic acid], the pKi entry on human NEP was “≧9.0”. In series [1], this molecule came in with a bioavailability greater than 10%.

`CCOC(=O)[C@H](N)C[C@@H](Cc1ccc(-c2cc(Cl)ccc2F)cc1)NC(=O)c1cnn[nH]1` [Example 14a, (2R,4R)-2-Amino-5-(5′-chloro-2′-fluorobiphenyl-4-yl)-4-[(3H-[1,2,3]triazole-4-carbonyl)amino]pentanoic Acid Ethyl Ester]: at human NEP, the Ki lay within 10 to 31.6 nM. The same molecule registered a bioavailability in series [1] greater than 10%.

As to `CCCCCCOC(=O)[C@H](N)C[C@@H](Cc1ccc(-c2cc(Cl)ccc2F)cc1)NC(=O)c1cnn[nH]1` [Example 14b, (2R,4R)-2-Amino-5-(5′-chloro-2′-fluorobiphenyl-4-yl)-4-[(3H-[1,2,3]triazole-4-carbonyl)amino]pentanoic Acid Hexyl Ester], on human NEP, the Ki was in the range of 31.6 to 100 nM. The molecule further registered a bioavailability in series [1] greater than 10%.

Regarding `CCOC(=O)[C@H](N)C[C@@H](Cc1ccc(-c2cc(Cl)ccc2F)cc1)NC(=O)c1cc(C(C)=O)n[nH]1` [Example 16-10, (2R,4R)-4-[(5-Acetyl-2H-pyrazole-3-carbonyl)amino]-2-amino-5-(5′-chloro-2′-fluoro-biphenyl-4-yl)pentanoic acid ethyl ester], at human NEP, the Ki was 10 to 31.6 nM. Besides, the bioavailability in series [1] is greater than 10%.

On to `Cc1ccccc1-c1n[nH]c(C(=O)N[C@H](Cc2ccc(-c3cc(Cl)ccc3F)cc2)C[C@@H](N)C(=O)O)c1F` [Example 16-23, (2R,4R)-2-Amino-5-(5′-chloro-2′-fluorobiphenyl-4-yl)-4-[(4-fluoro-5-o-tolyl-2H-pyrazole-3-carbonyl)amino]pentanoic acid], for which the pKi result at human NEP is listed as “≧9.0”. Further, the bioavailability in series [1] is greater than 10%.

Turning to `N[C@H](C[C@@H](Cc1ccc(-c2cc(Cl)ccc2F)cc1)NC(=O)c1cc(-c2ccccc2Cl)no1)C(=O)O` [Example 16-24, (2R,4R)-2-Amino-5-(5′-chloro-2′-fluorobiphenyl-4-yl)-4-{[3-(2-chlorophenyl)-isoxazole-5-carbonyl]amino}pentanoic acid], the pKi entry on human NEP is on record as “≧9.0”. The molecule also registered a bioavailability in series [1] greater than 10%.

For the molecule `CCc1cc(C(=O)N[C@H](Cc2ccc(-c3cc(Cl)ccc3F)cc2)C[C@@H](CN)C(=O)O)on1` [Example 21-1, (2S,4S)-2-Aminomethyl-5-(5′-chloro-2′-fluorobiphenyl-4-yl)-4-[(3-ethylisoxazole-5-carbonyl)amino]pentanoic acid], the pKi entry at human NEP is given as “≧9.0”. In addition, the bioavailability in series [1] is greater than 10%.

For the molecule `CCc1cc(C(=O)N[C@H](Cc2ccc(-c3cc(Cl)ccc3F)cc2)C[C@@H](NC(=O)OC)C(=O)O)on1` [Example 29, (2R,4R)-5-(5′-Chloro-2′-fluorobiphenyl-4-yl)-4-[(3-ethylisoxazole-5-carbonyl)amino]-2-methoxycarbonylaminopentanoic Acid], the Ki at human NEP was no more than 1 nM. The molecule also had a bioavailability in series [1] greater than 10%.

As to `COC(=O)N[C@H](C[C@@H](Cc1ccc(-c2cc(Cl)ccc2F)cc1)NC(=O)c1ncc(C)o1)C(=O)O` [Example 30-4, (2R,4R)-5-(5′-Chloro-2′-fluorobiphenyl-4-yl)-2-methoxycarbonylamino-4-[(5-methyloxazole-2-carbonyl)amino]pentanoic acid], the pKi entry on human NEP is listed as “≧9.0”. This molecule also returned a bioavailability in series [1] greater than 10%.

As to `CCc1nc(C(=O)N[C@H](Cc2ccc(-c3cc(Cl)ccc3F)cc2)C[C@@H](NC(=O)OC)C(=O)O)co1` [Example 30-6, (2R,4R)-5-(5′-Chloro-2′-fluorobiphenyl-4-yl)-4-[(2-ethyl-oxazole-4-carbonyl)amino]-2-methoxycarbonylaminopentanoic acid], the pKi result at human NEP is given as “≧9.0”. The molecule also came in with a bioavailability in series [1] greater than 10%.

As to `COC(=O)N[C@H](C[C@@H](Cc1ccc(-c2cc(Cl)ccc2F)cc1)NC(=O)c1ccc(Cl)cn1)C(=O)O` [Example 30-12, (2R,4R)-5-(5′-Chloro-2′-fluorobiphenyl-4-yl)-4-[(5-chloro-pyridine-2-carbonyl)-amino]-2-methoxycarbonylaminopentanoic acid], the pKi result on human NEP was “≧9.0”. This molecule also had a bioavailability in series [1] greater than 10%.

Broadly, the bioavailability is dose-corrected exposure relative to a reference, in per cent. Read a high bioavailability as good availability. In general, Ki refers to the dissociation constant of the complex between target and ligand, obtained from inhibition or displacement.

The record behind these values is patent publication US9593110B2, “Neprilysin inhibitors” (Theravence Biopharma R&D IP, LLC, priority 2014, dated 2017).
